From paper PMC5003625 (Journal of medicinal chemistry, 2016)

What was measured:
EZH2 = settings: cited from earlier work; for selectivity for EZH2 over EZH1: reported inhibitors
[1] = molecular target: EZH2 trimeric complex (EZH2:EED:SUZ12) (Homo sapiens, UniProt Q15910); test: Methyltransferase activity assay; format: biochemical; settings: for fold loss of potency for EZH2: relative to the parent compound of the sentence (5, 24 or 53)
[2] = molecular target: EZH1 pentameric complex (EZH1:EED:SUZ12:RBBP4:AEBP2) (Homo sapiens, UniProt Q92800); test: Methyltransferase activity assay; format: biochemical; settings: for fold loss of potency for EZH1: relative to the parent compound 5
EZH1 pentameric complex (EZH1:EED:SUZ12:RBBP4:AEBP2), sequence (Q92800 whole entry): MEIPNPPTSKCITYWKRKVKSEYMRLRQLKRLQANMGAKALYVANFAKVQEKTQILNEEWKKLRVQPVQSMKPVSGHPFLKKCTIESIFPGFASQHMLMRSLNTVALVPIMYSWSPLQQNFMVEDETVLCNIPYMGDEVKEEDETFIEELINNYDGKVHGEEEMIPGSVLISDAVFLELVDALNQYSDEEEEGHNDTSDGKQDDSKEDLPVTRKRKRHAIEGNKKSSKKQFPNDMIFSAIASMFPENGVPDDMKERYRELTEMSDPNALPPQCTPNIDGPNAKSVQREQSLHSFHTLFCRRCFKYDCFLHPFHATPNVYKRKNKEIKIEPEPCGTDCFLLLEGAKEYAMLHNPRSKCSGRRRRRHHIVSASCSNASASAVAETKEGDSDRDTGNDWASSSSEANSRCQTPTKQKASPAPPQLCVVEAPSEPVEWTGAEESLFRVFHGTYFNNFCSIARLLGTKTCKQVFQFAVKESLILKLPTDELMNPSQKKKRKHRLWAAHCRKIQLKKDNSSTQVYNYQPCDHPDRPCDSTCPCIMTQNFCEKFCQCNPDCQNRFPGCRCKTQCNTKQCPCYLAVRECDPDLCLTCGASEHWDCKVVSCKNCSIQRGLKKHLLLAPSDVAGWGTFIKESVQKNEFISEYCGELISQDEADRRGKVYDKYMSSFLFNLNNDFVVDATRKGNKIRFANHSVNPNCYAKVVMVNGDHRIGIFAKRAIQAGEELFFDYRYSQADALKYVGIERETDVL
EZH1 pentameric complex (EZH1:EED:SUZ12:RBBP4:AEBP2), sequence (O75530 whole entry partner): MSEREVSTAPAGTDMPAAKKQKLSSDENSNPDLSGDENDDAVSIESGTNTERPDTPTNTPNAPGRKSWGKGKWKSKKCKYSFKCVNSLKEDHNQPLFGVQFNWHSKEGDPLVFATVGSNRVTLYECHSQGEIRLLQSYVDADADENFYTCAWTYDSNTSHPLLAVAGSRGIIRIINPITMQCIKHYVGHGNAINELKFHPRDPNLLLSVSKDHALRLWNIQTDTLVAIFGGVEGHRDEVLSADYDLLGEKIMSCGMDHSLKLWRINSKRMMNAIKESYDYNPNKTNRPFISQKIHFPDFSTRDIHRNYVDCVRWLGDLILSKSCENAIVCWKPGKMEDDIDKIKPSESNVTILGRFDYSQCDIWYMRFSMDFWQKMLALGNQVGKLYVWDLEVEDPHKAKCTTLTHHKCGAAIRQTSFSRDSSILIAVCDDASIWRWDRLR
EZH1 pentameric complex (EZH1:EED:SUZ12:RBBP4:AEBP2), sequence (Q15022 whole entry partner): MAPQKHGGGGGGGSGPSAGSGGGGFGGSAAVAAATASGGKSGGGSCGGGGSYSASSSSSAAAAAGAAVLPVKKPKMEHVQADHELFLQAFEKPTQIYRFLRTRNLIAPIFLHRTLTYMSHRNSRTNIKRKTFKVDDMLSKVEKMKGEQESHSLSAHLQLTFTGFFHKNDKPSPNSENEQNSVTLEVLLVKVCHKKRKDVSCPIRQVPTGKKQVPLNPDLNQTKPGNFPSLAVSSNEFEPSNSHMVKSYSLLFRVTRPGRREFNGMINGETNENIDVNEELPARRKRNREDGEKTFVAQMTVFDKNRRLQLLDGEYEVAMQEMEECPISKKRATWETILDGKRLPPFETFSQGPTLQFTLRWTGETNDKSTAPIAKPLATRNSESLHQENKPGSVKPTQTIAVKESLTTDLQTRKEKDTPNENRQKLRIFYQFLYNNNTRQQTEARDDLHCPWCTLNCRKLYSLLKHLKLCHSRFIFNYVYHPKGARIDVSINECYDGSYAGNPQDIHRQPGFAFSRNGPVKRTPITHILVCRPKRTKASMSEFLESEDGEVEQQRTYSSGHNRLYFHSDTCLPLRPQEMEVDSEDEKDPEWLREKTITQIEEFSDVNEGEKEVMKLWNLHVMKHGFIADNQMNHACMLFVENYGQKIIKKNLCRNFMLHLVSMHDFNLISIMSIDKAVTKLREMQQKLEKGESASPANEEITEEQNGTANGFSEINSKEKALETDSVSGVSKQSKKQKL
EZH1 pentameric complex (EZH1:EED:SUZ12:RBBP4:AEBP2), sequence (Q09028 whole entry partner): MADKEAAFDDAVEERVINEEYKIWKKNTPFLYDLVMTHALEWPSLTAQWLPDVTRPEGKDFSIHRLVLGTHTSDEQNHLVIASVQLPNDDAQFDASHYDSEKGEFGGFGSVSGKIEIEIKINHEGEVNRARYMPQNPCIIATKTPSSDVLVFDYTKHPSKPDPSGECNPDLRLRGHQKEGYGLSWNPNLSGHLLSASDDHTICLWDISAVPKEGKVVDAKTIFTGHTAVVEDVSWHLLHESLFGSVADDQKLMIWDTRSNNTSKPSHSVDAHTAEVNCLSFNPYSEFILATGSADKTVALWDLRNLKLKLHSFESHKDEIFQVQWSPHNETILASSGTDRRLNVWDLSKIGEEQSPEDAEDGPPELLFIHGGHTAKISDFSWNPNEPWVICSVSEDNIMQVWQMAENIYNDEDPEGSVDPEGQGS
EZH1 pentameric complex (EZH1:EED:SUZ12:RBBP4:AEBP2), sequence (Q6ZN18 whole entry partner): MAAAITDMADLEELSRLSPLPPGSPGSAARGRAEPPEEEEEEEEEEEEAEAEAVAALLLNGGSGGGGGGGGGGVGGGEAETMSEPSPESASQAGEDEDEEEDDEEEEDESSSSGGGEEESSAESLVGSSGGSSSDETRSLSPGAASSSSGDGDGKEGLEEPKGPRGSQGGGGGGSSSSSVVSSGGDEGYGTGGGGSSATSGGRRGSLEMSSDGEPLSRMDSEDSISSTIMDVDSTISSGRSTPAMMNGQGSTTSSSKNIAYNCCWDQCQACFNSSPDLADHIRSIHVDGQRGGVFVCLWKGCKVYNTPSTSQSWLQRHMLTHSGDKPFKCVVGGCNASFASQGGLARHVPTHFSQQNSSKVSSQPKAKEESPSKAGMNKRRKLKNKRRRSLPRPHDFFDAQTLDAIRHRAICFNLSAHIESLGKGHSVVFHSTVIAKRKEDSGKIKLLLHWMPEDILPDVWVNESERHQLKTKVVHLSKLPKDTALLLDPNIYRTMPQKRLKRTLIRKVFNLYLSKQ

EZH2 trimeric complex (EZH2:EED:SUZ12), sequence (Q15910 whole entry): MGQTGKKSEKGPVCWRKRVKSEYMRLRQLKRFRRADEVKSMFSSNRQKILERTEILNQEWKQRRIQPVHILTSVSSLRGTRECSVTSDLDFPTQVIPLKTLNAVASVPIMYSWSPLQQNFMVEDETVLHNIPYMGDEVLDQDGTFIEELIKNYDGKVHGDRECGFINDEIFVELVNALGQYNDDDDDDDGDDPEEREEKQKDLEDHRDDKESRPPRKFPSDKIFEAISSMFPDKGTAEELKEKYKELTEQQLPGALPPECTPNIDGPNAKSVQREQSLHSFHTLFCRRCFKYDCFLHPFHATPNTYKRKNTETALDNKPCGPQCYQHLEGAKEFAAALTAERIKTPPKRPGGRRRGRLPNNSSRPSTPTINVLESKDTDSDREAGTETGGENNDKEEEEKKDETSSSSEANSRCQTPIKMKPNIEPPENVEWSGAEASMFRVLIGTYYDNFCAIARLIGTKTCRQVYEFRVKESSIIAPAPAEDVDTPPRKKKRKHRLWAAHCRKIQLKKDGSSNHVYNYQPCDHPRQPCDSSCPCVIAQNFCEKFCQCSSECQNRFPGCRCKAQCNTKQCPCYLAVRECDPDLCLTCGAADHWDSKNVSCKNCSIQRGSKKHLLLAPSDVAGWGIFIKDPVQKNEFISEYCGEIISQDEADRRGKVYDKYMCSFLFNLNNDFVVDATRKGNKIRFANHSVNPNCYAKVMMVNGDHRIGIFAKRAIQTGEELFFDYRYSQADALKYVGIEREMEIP
EZH2 trimeric complex (EZH2:EED:SUZ12), sequence (O75530 whole entry partner): as the sequence (O75530 whole entry partner) above
EZH2 trimeric complex (EZH2:EED:SUZ12), sequence (Q15022 whole entry partner): as the sequence (Q15022 whole entry partner) above

| SMILES | inhibitory activity against EZH2, in words [1] | inhibitory activity against EZH1, in words [2] | other results |
| --- | --- | --- | --- |
| Cc1cc(C)c(CNC(=O)c2cc(-c3ccc(CN4CCOCC4)cc3)cc3c2cnn3C2CCCC2)c(=O)[nH]1 [Compound 1, EPZ005687] |  |  | selectivity for EZH2 over EZH1 (EZH2): 50 fold |
| CC[C@H](C)n1cc(C)c2c(C(=O)NCc3c(C)cc(C)[nH]c3=O)cc(-c3ccc(N4CCNCC4)nc3)cc21 [Compound 2, GSK126] |  |  | selectivity for EZH2 over EZH1 (EZH2): 150 fold |
| CCCc1cc(C)[nH]c(=O)c1CNC(=O)c1cc(-c2ccnc(N3CCN(C)CC3)c2)cc2c1cnn2C(C)C [Compound 3, GSK343] |  |  | selectivity for EZH2 over EZH1 (EZH2): 60 fold |
| CCC(CC)n1ccc2c(C(=O)NCc3c(C)cc(C)[nH]c3=O)cc(C#N)cc21 [Compound 4, EI1] |  |  | selectivity for EZH2 over EZH1 (EZH2): 140 fold |
| CCCc1cc(C)[nH]c(=O)c1CNC(=O)c1cc(-c2ccc(N3CCN(C(C)C)CC3)nc2)cc2c1cnn2C(C)C [Compound 5, UNC1999] |  |  | IC50 (EZH2; read-out: IC50 EZH2, previously reported): < 10 nM |
| COc1cc(C)[nH]c(=O)c1CNC(=O)c1c(C)n([C@H](C)C2CCOCC2)c2ccccc12 [Compound 8, CPI-360] |  |  | selectivity for EZH2 over EZH1 (EZH2): 100 fold |
| CCN(c1cc(-c2ccc(N3CCN(C)CC3)nc2)cc(C(=O)NCc2c3c(c(C)[nH]c2=O)CCCC3)c1C)C1CCOCC1 [Compound 10, ZLD1039] |  |  | selectivity for EZH2 over EZH1 (EZH2): 12 fold |
| Cc1cc(C(C)(C)C)[nH]c(=O)c1CNC(=O)c1cc(-c2ccc(N3CCN(C(C)C)CC3)nc2)cc2c1cnn2C(C)C [Compound 32, N-((6-(tert-Butyl)-4-methyl-2-oxo-1,2-dihydropyridin-3-yl)-methyl)-1-isopropyl-6-(6-(4-isopropylpiperazin-1-yl)pyridin-3-yl)-1H-indazole-4-carboxamide] | complete loss of potency | complete loss of potency |  |
| Cc1cc(-c2ccccc2)[nH]c(=O)c1CNC(=O)c1cc(-c2ccc(N3CCN(C(C)C)CC3)nc2)cc2c1cnn2C(C)C [Compound 33, 1-Isopropyl-6-(6-(4-isopropylpiperazin-1-yl)pyridin-3-yl)-N-((4-methyl-2-oxo-6-phenyl-1,2-dihydropyridin-3-yl)methyl)-1H-inda-zole-4-carboxamide] | complete loss of potency | complete loss of potency |  |
| Cc1cc(O)c(CNC(=O)c2cc(-c3ccc(N4CCN(C(C)C)CC4)nc3)cc3c2cnn3C(C)C)c(=O)[nH]1 [Compound 39, N-((4-Hydroxy-6-methyl-2-oxo-1,2-dihydropyridin-3-yl)methyl)-1-isopropyl-6-(6-(4-isopropylpiperazin-1-yl)pyridin-3-yl)-1H-inda-zole-4-carboxamide] | total loss of potency | total loss of potency |  |
| Cc1ncc(CNC(=O)c2cc(-c3ccc(N4CCN(C(C)C)CC4)nc3)cc3c2cnn3C(C)C)c(=O)[nH]1 [Compound 40, 1-Isopropyl-6-(6-(4-isopropylpiperazin-1-yl)pyridin-3-yl)-N-((2-methyl-6-oxo-1,6-dihydropyrimidin-5-yl)methyl)-1H-indazole-4-carboxamide] | completely abrogated inhibitory activity | completely abrogated inhibitory activity |  |
| CC(C)N1CCN(c2ccc(-c3cc(C(=O)NCc4cnc[nH]c4=O)c4cnn(C(C)C)c4c3)cn2)CC1 [Compound 41, 1-Isopropyl-6-(6-(4-isopropylpiperazin-1-yl)pyridin-3-yl)-N-((6-oxo-1,6-dihydropyrimidin-5-yl)methyl)-1H-indazole-4-carboxamide] | completely abrogated inhibitory activity | completely abrogated inhibitory activity |  |
| Cc1[nH]c(=O)[nH]c(=O)c1CNC(=O)c1cc(-c2ccc(N3CCN(C(C)C)CC3)nc2)cc2c1cnn2C(C)C [Compound 42, 1-Isopropyl-6-(6-(4-isopropylpiperazin-1-yl)pyridin-3-yl)-N-((6-methyl-2,4-dioxo-1,2,3,4-tetrahydropyrimidin-5-yl)methyl)-1H-in-dazole-4-carboxamide] | completely abrogated inhibitory activity | completely abrogated inhibitory activity |  |
| CC(C)N1CCN(c2ccc(-c3cc(C(=O)NC4CC(C)(C)NC(C)(C)C4)c4cnn(C(C)C)c4c3)cn2)CC1 [Compound 43, 1-Isopropyl-6-(6-(4-isopropylpiperazin-1-yl)pyridin-3-yl)-N-(2,2,6,6-tetramethylpiperidin-4-yl)-1H-indazole-4-carboxamide] | complete loss of potency | complete loss of potency |  |
| CCCc1cc(C)[nH]c(=O)c1CNC(=O)c1cc(-c2ccc(N3CCN(C(C)C)CC3)nc2)cc2nn(C(C)C)cc12 [Compound 44, 2-Isopropyl-6-(6-(4-isopropylpiperazin-1-yl)pyridin-3-yl)-N-((6-methyl-2-oxo-4-propyl-1,2-dihydropyridin-3-yl)methyl)-2H-inda-zole-4-carboxamide] |  |  | fold loss of potency for EZH2 [1]: more than 30 fold; fold loss of potency for EZH1 [2]: more than 30 fold |
| CCCc1cc(C)[nH]c(=O)c1CNC(=O)c1nn(C(C)C)c2cc(-c3ccc(N4CCN(C(C)C)CC4)nc3)ccc12 [Compound 45, 1-Isopropyl-6-(6-(4-isopropylpiperazin-1-yl)pyridin-3-yl)-N-((6-methyl-2-oxo-4-propyl-1,2-dihydropyridin-3-yl)methyl)-1H-inda-zole-3-carboxamide] | obliterated the inhibitory activity | obliterated the inhibitory activity |  |
| CCCc1cc(C)[nH]c(=O)c1CNC(=O)c1nn(C(C)C)c2ccc(-c3ccc(N4CCN(C(C)C)CC4)nc3)cc12 [Compound 46, 1-Isopropyl-5-(6-(4-isopropylpiperazin-1-yl)pyridin-3-yl)-N-((6-methyl-2-oxo-4-propyl-1,2-dihydropyridin-3-yl)methyl)-1H-inda-zole-3-carboxamide] | complete loss of potency | complete loss of potency |  |
| CCCc1cc(C)[nH]c(=O)c1CNC(=O)c1cc(-c2ccc(N3CCN(C(C)C)CC3)nc2)c2cnn(C(C)C)c2c1 [Compound 47, 1-Isopropyl-4-(6-(4-isopropylpiperazin-1-yl)pyridin-3-yl)-N-((6-methyl-2-oxo-4-propyl-1,2-dihydropyridin-3-yl)methyl)-1H-inda-zole-6-carboxamide] |  | abolished all EZH1 inhibition |  |
| CCCc1cc(C)[nH]c(=O)c1CNC(=O)c1cccn2c(-c3ccc(N4CCN(C(C)C)CC4)nc3)cnc12 [Compound 48, 3-(6-(4-Isopropylpiperazin-1-yl)pyridin-3-yl)-N-((6-methyl-2-oxo-4-propyl-1,2-dihydropyridin-3-yl)methyl)imidazo[1,2-a]pyridine-8-carboxamide] | did not display any inhibitory activity | did not display any inhibitory activity |  |
| CCCc1cc(C)[nH]c(=O)c1CNC(=O)c1cnn2c(-c3ccc(N4CCN(C(C)C)CC4)nc3)cccc12 [Compound 49, 7-(6-(4-Isopropylpiperazin-1-yl)pyridin-3-yl)-N-((6-methyl-2-oxo-4-propyl-1,2-dihydropyridin-3-yl)methyl)pyrazolo[1,5-a]pyridine-3-carboxamide] | did not display any inhibitory activity | did not display any inhibitory activity |  |
| CCCc1cc(C)[nH]c(=O)c1CNC(=O)c1cn2ccc(-c3ccc(N4CCN(C(C)C)CC4)nc3)cc2n1 [Compound 50, 7-(6-(4-Isopropylpiperazin-1-yl)pyridin-3-yl)-N-((6-methyl-2-oxo-4-propyl-1,2-dihydropyridin-3-yl)methyl)imidazo[1,2-a]pyridine-2-carboxamide] | inactive | inactive |  |
| CCCc1cc(C)[nH]c(=O)c1CNC(=O)c1cc(-c2ccc(N3CCN(C(C)C)CC3)nc2)cc2c1cnn2C [Compound 55, 6-(6-(4-Isopropylpiperazin-1-yl)pyridin-3-yl)-1-methyl-N-((6-methyl-2-oxo-4-propyl-1,2-dihydropyridin-3-yl)methyl)-1H-inda-zole-4-carboxamide] |  | did not have appreciable inhibitory activity | fold loss of potency for EZH2 [1]: 10–20 fold |
| CCCc1cc(C)[nH]c(=O)c1CNC(=O)c1cc(-c2ccc(N3CCN(C(C)C)CC3)nc2)cc2c1cnn2C1CCCCCC1 [Compound 56, 1-Cycloheptyl-6-(6-(4-isopropylpiperazin-1-yl)pyridin-3-yl)-N-((6-methyl-2-oxo-4-propyl-1,2-dihydropyridin-3-yl)methyl)-1H-inda-zole-4-carboxamide] |  | did not have appreciable inhibitory activity | fold loss of potency for EZH2 [1]: 10–20 fold |
| CCCc1cc(C)[nH]c(=O)c1CNC(=O)c1cc(-c2ccc(N3CCN(CC)CC3)nc2)cc2c1cnn2C(C)C [Compound 64] | did not affect the potency | did not affect the potency |  |
| CCCc1cc(C)[nH]c(=O)c1CNC(=O)c1cc(-c2ccc(N3CCNCC3)nc2)cc2c1cnn2C(C)C [Compound 65] | did not affect the potency | did not affect the potency |  |
| CCCc1cc(C)[nH]c(=O)c1CNC(=O)c1cc(C2CCNCC2)cc2c1cnn2C(C)C [Compound 72, 1-Isopropyl-N-((6-methyl-2-oxo-4-propyl-1,2-dihydropyridin-3-yl)methyl)-6-(piperidin-4-yl)-1H-indazole-4-carboxamide] |  |  | fold loss of potency for EZH1 [2]: more than 10 fold |
| CCCc1cc(C)[nH]c(=O)c1CNC(=O)c1cc(N2CCNCC2)cc2c1cnn2C(C)C [Compound 73, 1-Isopropyl-N-((6-methyl-2-oxo-4-propyl-1,2-dihydropyridin-3-yl)methyl)-6-(piperazin-1-yl)-1H-indazole-4-carboxamide] |  |  | fold loss of potency for EZH1 [2]: more than 10 fold |
